Source: patent US20180273531A1, “PYRIMIDINE COMPOUND AND MEDICAL USE THEREOF” (Japan Tobacco Inc., priority 2004, published 2018)

Columns and labels:
Assay type in all cases: cell-based
[1] = tested on: p27 protein; test: p27 protein induction test (Western blotting); conditions: test substance (0.1 1M), 24 hrs, ACHN cells or HT-29 cells, compared to DMSO, n=2
Protocol: ACHN cells or HT-29 cells were cultured in a 6 well plate at 2.5×10^5 cells/1.8 mL/well for 24 hrs, a test substance ([…]) dissolved in DMSO was added. After 24 hrs, cells were detached using trypsin-EDTA (ethylene diamine tetraacetic acid) and solubilized with NuPAGE LDS sample buffer (Invitrogen). Using an RC DC protein assay kit (BIO-RAD), the protein concentration of the sample was quantitated, and a sample in an amount corresponding to 10 μg of BSA (bovine serum albumin) was analyzed by Western blotting using an anti-p27 antibody. The density of the band stained with the anti-p27 antibody was measured by a densitometer to quantify the amount of p27 protein. As a control, DMSO was used and the test was performed with n=2 and the average protein amount was determined.

[2] = tested on: Renal cancer cell line ACHN cell; test: Growth inhibitory effect against cancer cell lines (3H-thymidine uptake), ACHN; conditions: Homo sapiens, ACHN
Protocol: Renal cancer cell line ACHN cell or colorectal cancer cell line HT-29 cells were cultured in a 96 well plate at 1.0×10^4 cells/90 μL/well for 24 hrs, then a test substance dissolved in DMSO (dimethyl sulfoxide) was added. After 18 hrs, ^3H-thymidine (0.25 μCi/well) was added and the cells were cultured for 6 hrs. Using a cell harvester, the cells were recovered on a UniFilter-96 GF/B glass filter and the ^3H radioactivity uptaken by the cells was measured by TopCount (Packard). As a control, DMSO was used and the activity of the test substance was expressed in the concentration (IC50) necessary for inhibiting ^3H radioactivity uptaken by the cell to 50% of that of the control group. The measurements were made in triplicate.

[3] = tested on: p15 protein; test: Evaluation of p15 induction activity (Western blotting); conditions: test substance 0.1 μM, 24 hrs, ACHN cells or HT-29 cells, compared to DMSO, n=2
Procedure, shortened: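 p15 protein quantified by densitometry of anti-p15 Western blots (10 μg protein per lane, mean of n=2). Samples came from HT-29 or ACHN cells given 0.1 μM compound for 24 h after 24 h plating, with DMSO as control.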

[4] = tested on: colorectal cancer cell line HT-29 cells; test: Growth inhibitory effect against cancer cell lines (3H-thymidine uptake), HT-29; conditions: Homo sapiens, HT-29, inhibition of 3H-thymidine uptake; test substance 18 hrs, then 3H-thymidine 6 hrs; triplicate
Procedure, shortened: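 Cells seeded at 1.0×10^4/well, grown 24 hrs, then exposed to compound in DMSO for 18 hrs before 6 hrs pulse with ^3H-thymidine (0.25 μCi/well). Harvested cell-incorporated radioactivity counted; IC50 is the concentration halving uptake versus DMSO control, triplicate.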

| IC50 [2] | IC50 [4] | SMILES | fold induction at 0.1 µM [1] | fold induction at 0.1 µM [3] |
| --- | --- | --- | --- | --- |
| 100 to 1000 nM | 10 to 100 nM | Cn1c(=O)cc(Nc2ccc(Br)cc2F)c2c(=O)n(C3CC3)c(=O)n(-c3cccc(NS(=O)(=O)c4ccccc4)c3)c21 [Example 1-284] | ≥ 1.5 | ≥ 1.5 |
| 10 to 100 nM | 10 to 100 nM | CSc1ccc(Nc2cc(=O)n(C)c3c2c(=O)n(C2CC2)c(=O)n3-c2ccccc2)c(F)c1 [Example 1-285] | ≥ 1.5 | ≥ 1.5 |
| 10 to 100 nM | < 10 nM | CSc1ccc(Nc2cc(=O)n(C)c3c2c(=O)n(C2CC2)c(=O)n3-c2cccc(NS(C)(=O)=O)c2)c(F)c1 [Example 1-286] | ≥ 1.5 | ≥ 1.5 |
| 100 to 1000 nM | 10 to 100 nM | CC(C)C(=O)Nc1cccc(-n2c(=O)n(C3CC3)c(=O)c3c(Nc4ccc(Br)cc4F)cc(=O)n(C)c32)c1 [Example 1-287] | ≥ 1.5 | ≥ 1.5 |
| < 10 nM | < 10 nM | C#Cc1ccc(Nc2cc(=O)n(C)c3c2c(=O)n(C2CC2)c(=O)n3-c2cccc(NS(=O)(=O)CC)c2)c(F)c1 [Example 1-289] | ≥ 1.5 | ≥ 1.5 |
| 10 to 100 nM | < 10 nM | C#Cc1ccc(Nc2cc(=O)n(C)c3c2c(=O)n(C2CC2)c(=O)n3-c2cccc(NS(C)(=O)=O)c2)cc1 [Example 1-290] | ≥ 1.5 | ≥ 1.5 |
| 100 to 1000 nM | 100 to 1000 nM | Cn1c(=O)cc(Nc2ccc(CCF)cc2)c2c(=O)n(C3CC3)c(=O)n(-c3ccccc3)c21 [Example 1-293] | ≥ 1.5 | ≥ 1.5 |
| 100 to 1000 nM | 10 to 100 nM | CCNS(=O)(=O)c1cccc(-n2c(=O)n(C3CC3)c(=O)c3c(Nc4ccc(Br)cc4F)cc(=O)n(C)c32)c1 [Example 1-295] | ≥ 1.5 | ≥ 1.5 |
| 100 to 1000 nM | < 10 nM | CCc1ccc(Nc2cc(=O)n(C)c3c2c(=O)n(C2CC2)c(=O)n3-c2cccc(NC(C)=O)c2)c(F)c1 [Example 1-296] | ≥ 1.5 | ≥ 1.5 |
| 10 to 100 nM | < 10 nM | CC(=O)Nc1cccc(-n2c(=O)n(C3CC3)c(=O)c3c(Nc4ccc(I)cc4F)cc(=O)n(C)c32)c1 [Example 1-297] | ≥ 1.5 | ≥ 1.5 |
| 10 to 100 nM | < 10 nM | C#Cc1ccc(Nc2cc(=O)n(C)c3c2c(=O)n(C2CC2)c(=O)n3-c2cccc(NS(=O)(=O)CC)c2)cc1 [Example 1-298] | ≥ 1.5 | ≥ 1.5 |
| 100 to 1000 nM | 10 to 100 nM | Cn1c(=O)cc(Nc2ccc(C(F)(F)F)cc2F)c2c(=O)n(C3CC3)c(=O)n(-c3cccc(NS(C)(=O)=O)c3)c21 [Example 1-301] | ≥ 1.5 | ≥ 1.5 |
| 100 to 1000 nM | 10 to 100 nM | Cn1c(=O)cc(Nc2ccc(Br)cc2F)c2c(=O)n(C3CC3)c(=O)n(-c3cccc(S(=O)(=O)N4CCCCC4)c3)c21 [Example 1-317] | ≥ 1.5 | ≥ 1.5 |

The next lines start with the compound.

| SMILES | IC50 [2] | IC50 [4] | fold induction at 0.1 µM [1] | fold induction at 0.1 µM [3] |
| --- | --- | --- | --- | --- |
| Cc1cc(N(C)C)ccc1Nc1cc(=O)n(C)c2c1c(=O)n(C1CC1)c(=O)n2-c1ccccc1 [Example 1-112] | 100 to 1000 nM | 10 to 100 nM | ≥ 1.5 | ≥ 1.5 |
| CN(C)c1ccc(Nc2cc(=O)n(C)c3c2c(=O)n(C2CC2)c(=O)n3-c2ccccc2F)cc1 [Example 1-114] | 100 to 1000 nM | 100 to 1000 nM | ≥ 1.5 | ≥ 1.5 |
| Cn1c(=O)cc(Nc2ccc(Br)cc2F)c2c(=O)n(C3CC3)c(=O)n(-c3ccccc3)c21 [Example 1-152] | 100 to 1000 nM | 10 to 100 nM | ≥ 1.5 | ≥ 1.5 |
| Cn1c(=O)c2c(Nc3ccc(Br)cc3F)cc(=O)n(C)c2n(-c2ccccc2)c1=O [Example 1-185] | 100 to 1000 nM | 10 to 100 nM | ≥ 1.5 | ≥ 1.5 |
| Cn1c(=O)cc(Nc2ccc(Br)cc2F)c2c(=O)n(C3CC3)c(=O)n(-c3cccc(N4CCOCC4=O)c3)c21 [Example 1-219] | 100 to 1000 nM | 10 to 100 nM | ≥ 1.5 | ≥ 1.5 |
| Cn1c(=O)cc(Nc2ccc(I)cc2)c2c(=O)n(C3CC3)c(=O)n(-c3ccccc3)c21 [Example 1-221] | 10 to 100 nM | < 10 nM | ≥ 1.5 | ≥ 1.5 |
| C#Cc1ccc(Nc2cc(=O)n(C)c3c2c(=O)n(C2CC2)c(=O)n3-c2ccccc2)cc1 [Example 1-222] | 100 to 1000 nM | 10 to 100 nM | ≥ 1.5 | ≥ 1.5 |
| CN(C)S(=O)(=O)c1cccc(-n2c(=O)n(C3CC3)c(=O)c3c(Nc4ccc(Br)cc4F)cc(=O)n(C)c32)c1 [Example 1-224] | 100 to 1000 nM | < 10 nM | ≥ 1.5 | ≥ 1.5 |
| CN(C)S(=O)(=O)c1ccc(-n2c(=O)n(C3CC3)c(=O)c3c(Nc4ccc(Br)cc4F)cc(=O)n(C)c32)cc1 [Example 1-226] | 100 to 1000 nM | 10 to 100 nM | ≥ 1.5 | ≥ 1.5 |
| C=Cc1ccc(Nc2cc(=O)n(C)c3c2c(=O)n(C2CC2)c(=O)n3-c2ccccc2)c(F)c1 [Example 1-240] | 10 to 100 nM | 10 to 100 nM | ≥ 1.5 | ≥ 1.5 |
| CCc1ccc(Nc2cc(=O)n(C)c3c2c(=O)n(C2CC2)c(=O)n3-c2ccccc2)c(F)c1 [Example 1-242] | 100 to 1000 nM | 10 to 100 nM | ≥ 1.5 | ≥ 1.5 |
| Cn1c(=O)cc(Nc2ccc(Br)cc2F)c2c(=O)n(C3CC3)c(=O)n(-c3cccc(CCCO)c3)c21 [Example 1-243] | 100 to 1000 nM | 10 to 100 nM | ≥ 1.5 | ≥ 1.5 |
| CC(=O)Nc1cccc(-n2c(=O)n(C3CC3)c(=O)c3c(Nc4ccc(Br)cc4F)cc(=O)n(C)c32)c1 [Example 1-245] | 10 to 100 nM | < 10 nM | ≥ 1.5 | ≥ 1.5 |
| Cn1c(=O)cc(Nc2ccc(Br)cc2F)c2c(=O)n(C3CC3)c(=O)n(-c3cccc(N)c3)c21 [Example 1-264] | 100 to 1000 nM | 10 to 100 nM | ≥ 1.5 | ≥ 1.5 |
| Cn1c(=O)cc(Nc2ccc(C3CC3)cc2F)c2c(=O)n(C3CC3)c(=O)n(-c3ccccc3)c21 [Example 1-265] | 100 to 1000 nM | 10 to 100 nM | ≥ 1.5 | ≥ 1.5 |
| COCC(=O)Nc1cccc(-n2c(=O)n(C3CC3)c(=O)c3c(Nc4ccc(Br)cc4F)cc(=O)n(C)c32)c1 [Example 1-266] | 100 to 1000 nM | < 10 nM | ≥ 1.5 | ≥ 1.5 |
| CCc1ccc(Nc2cc(=O)n(C)c3c2c(=O)n(C2CC2)c(=O)n3-c2cccc(NS(=O)(=O)CC)c2)c(F)c1 [Example 1-268] | 10 to 100 nM | 10 to 100 nM | ≥ 1.5 | ≥ 1.5 |
| CCCS(=O)(=O)Nc1cccc(-n2c(=O)n(C3CC3)c(=O)c3c(Nc4ccc(Br)cc4F)cc(=O)n(C)c32)c1 [Example 1-271] | 10 to 100 nM | < 10 nM | ≥ 1.5 | ≥ 1.5 |
| CC(C)S(=O)(=O)Nc1cccc(-n2c(=O)n(C3CC3)c(=O)c3c(Nc4ccc(Br)cc4F)cc(=O)n(C)c32)c1 [Example 1-272] | 10 to 100 nM | 10 to 100 nM | ≥ 1.5 | ≥ 1.5 |
| Cn1c(=O)cc(Nc2ccc(Br)cc2F)c2c(=O)n(C3CC3)c(=O)n(-c3cccc(NS(=O)(=O)CCl)c3)c21 [Example 1-282] | 100 to 1000 nM | 10 to 100 nM | ≥ 1.5 | ≥ 1.5 |
| CNc1cccc(-n2c(=O)n(C3CC3)c(=O)c3c(Nc4ccc(Br)cc4F)cc(=O)n(C)c32)c1 [Example 1-283] | 100 to 1000 nM | 10 to 100 nM | ≥ 1.5 | ≥ 1.5 |
